From patent US20260062422A1 (Halda Therapeutics OpCo, Inc., priority 2022, published 2026)

Experiments:
[1] = system: T-Rex 293 cell line SC3 cells having increased expression of androgen receptor protein due to exposure to doxycycline; assay: Cellular growth inhibition, T-Rex 293 SC3 cells with doxycycline (androgen receptor induced), CellTiter-Glo; assay type: cell-based; conditions: T-Rex 293 SC3 cells with 10 ng/mL doxycycline (increased androgen receptor expression)
How it was run: (§1)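 SC3 is a T-Rex 293 clone stably transfected with wild-type androgen receptor in pcDNA4/TO, inducible by 10 ng/mL doxycycline. Cells were grown in phenol red-free DMEM with 10% charcoal-dextran FBS, with or without doxycycline, dosed 24 h after seeding (0.5% DMSO) for 72 h. Viability was read by CellTiter-Glo 2.0 luminescence and GI50 obtained from four-parameter fits.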

VCaP cells = assay: Cellular growth inhibition assay for VCaP cells, CellTiter-Glo; assay type: cell-based, human; conditions: 72 hours treatment, CellTiter-Glo 2.0
How it was run: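 GI50 values come from four-parameter curve fits of luminescence data normalized to a zero baseline. Compound, in medium with 0.5% DMSO, was added one day after plating and left for 72 h before CellTiter-Glo 2.0 addition.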

T47D cells = assay: Cellular growth inhibition assay for T47D cells, CellTiter-Glo; assay type: cell-based, human; conditions: 72 hours treatment, CellTiter-Glo 2.0 cell viability
How it was run: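 Cells are plated at 3000/well and allowed 24 h before treatment. Test compound in medium containing 0.5% DMSO is then added, with DMSO-only wells as negative control, and plates are incubated 72 h at 37 °C. ATP luminescence (CellTiter-Glo 2.0) is then fitted to four parameters to derive GI50.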

[2] = system: T-Rex 293 cell line SC3 cells lacking increased expression of androgen receptor protein; assay: Cellular growth inhibition, T-Rex 293 SC3 cells without doxycycline, CellTiter-Glo; assay type: cell-based; conditions: T-Rex 293 SC3 cells not exposed to doxycycline, CellTiter-Glo 2.0
How it was run: as §1

| SMILES | GI50 ([1]; 72 h) | GI50 (VCaP cells; Homo sapiens, VCaP, 72 h) | GI50 (T47D cells; Homo sapiens, T47D, 72 h) | GI50 ([2]; 72 h) | GI50 ([1]; 72 hours) | GI50 (VCaP cells) | GI50 (T47D cells) | GI50 ([2]; 72 hours) |
| --- | --- | --- | --- | --- | --- | --- | --- | --- |
| CC[C@@H]1N=C(c2ccc(CC3CC4(CCN(c5ncc(C(=O)N[C@H]6C(C)(C)[C@H](Oc7ccc(C#N)c(Cl)c7)C6(C)C)cn5)CC4)C3)cc2)c2c(sc(C)c2C)-n2c(C)nnc21 [Compound I-596] | < 500 nM | < 500 nM | > 3000 nM | > 3000 nM |  |  |  |  |
| Cc1sc2c(c1C)C(c1ccc(NCC(=O)N3CCC(c4ncc(C(=O)N[C@H]5C(C)(C)[C@H](Oc6ccc(C#N)c(Cl)c6)C5(C)C)cn4)CC3)cc1)=N[C@H](Cc1ncco1)c1nnc(C)n1-2 [Compound I-275] | < 500 nM | < 500 nM | < 500 nM | < 500 nM |  |  |  |  |
| Cc1sc2c(c1C)C(c1ccc(OC[C@H]3CCCN(c4ncc(C(=O)N[C@H]5C(C)(C)[C@H](Oc6ccc(C#N)c(Cl)c6)C5(C)C)cn4)C3)cc1)=N[C@@H](Cc1ncco1)c1nnc(C)n1-2 [Compound I-255] | < 500 nM | < 500 nM | < 500 nM | < 500 nM |  |  |  |  |
| Cc1sc2c(c1C)C(c1ccc(CC3CC4(CCN(c5cnc(C(=O)N[C@H]6C(C)(C)[C@H](Oc7ccc(C#N)c(Cl)c7)C6(C)C)cn5)CC4)C3)cc1)=N[C@@H](C)c1nnc(C)n1-2 [Compound I-448] | < 500 nM | > 3000 nM | < 500 nM | > 3000 nM |  |  |  |  |
| Cc1sc2c(c1C)C(c1ccc([C@H]3C[C@H]([C@H]4CCN(c5ncc(C(=O)N[C@H]6C(C)(C)[C@H](Oc7ccc(C#N)c(Cl)c7)C6(C)C)cn5)C4)C3)cc1)=N[C@@H](Cc1ncco1)c1nnc(C)n1-2 [Compound I-416] | < 500 nM | < 500 nM | < 500 nM | > 3000 nM |  |  |  |  |
| Cc1sc2c(c1C)C(c1ccc(N3CC4(C3)CC3(CCN(c5ncc(C(=O)N[C@H]6C(C)(C)[C@H](Oc7ccc(C#N)c(Cl)c7)C6(C)C)cn5)CC3)C4)cc1)=N[C@@H](Cc1ncco1)c1nnc(C)n1-2 [Compound I-388] | < 500 nM | < 500 nM | < 500 nM | > 3000 nM |  |  |  |  |
| Cc1sc2c(c1C)C(c1ccc(C[C@@H]3CCCN(c4ncc(C(=O)N[C@H]5C(C)(C)[C@H](Oc6ccc(C#N)c(Cl)c6)C5(C)C)cn4)C3)cc1)=N[C@@H](Cc1ncco1)c1nnc(C)n1-2 [Compound I-296] | < 500 nM | < 500 nM | < 500 nM | 500 to 1500 nM |  |  |  |  |
| Cc1sc2c(c1C)C(c1ccc(CCCN3CC4(C3)CN(c3ncc(C(=O)N[C@H]5C(C)(C)[C@H](Oc6ccc(C#N)c(Cl)c6)C5(C)C)cn3)C4)cc1)=N[C@@H](C)c1nnc(C)n1-2 [Compound I-348] | < 500 nM | < 500 nM | < 500 nM | 1500 to 3000 nM |  |  |  |  |
| Cc1sc2c(c1C)C(c1ccc(CN(C)C(=O)[C@@H]3CC[C@@H](c4ncc(C(=O)N[C@H]5C(C)(C)[C@H](Oc6ccc(C#N)c(Cl)c6)C5(C)C)cn4)C3)cc1)=N[C@@H](Cc1ncco1)c1nnc(C)n1-2 [Compound I-372] | < 500 nM | < 500 nM | 500 to 1500 nM | > 3000 nM |  |  |  |  |
| Cc1sc2c(c1C)C(c1ccc(CCC[C@@H]3CCCN(c4ncc(C(=O)N[C@H]5C(C)(C)[C@H](Oc6ccc(C#N)c(Cl)c6)C5(C)C)cn4)C3)cc1)=N[C@@H](C)c1nnc(C)n1-2 [Compound I-353] | < 500 nM | > 3000 nM | > 3000 nM | > 3000 nM |  |  |  |  |
| Cc1sc2c(c1C)C(c1ccc(N3CCC[C@H](C(=O)NCc4ncc(C(=O)N[C@H]5C(C)(C)[C@H](Oc6ccc(C#N)c(Cl)c6)C5(C)C)cn4)C3)cc1)=N[C@@H](Cc1ncco1)c1nnc(C)n1-2 [Compound I-332] |  |  |  |  | > 3000 nM | > 3000 nM | > 3000 nM | > 3000 nM |
| Cc1sc2c(c1C)C(c1ccc(OC3CC4(CCN(c5ncc(C(=O)N[C@H]6C(C)(C)[C@H](Oc7ccc(C#N)c(Cl)c7)C6(C)C)cn5)CC4)C3)cc1)=N[C@@H](Cc1nnn(C)n1)c1nnc(C)n1-2 [Compound I-218, N-[3-(3-chloro-4-cyano-phenoxy)-2,2,4,4-tetramethyl-cyclobutyl]-2-[2-[4-[(9S)-4,5,13-trimethyl-9-[(2-methyltetrazol-5-yl)methyl]-3-thia-1,8,11,12-tetrazatricyclo[8.3.0.02,6]trideca-2(6),4,7,10,12-pentaen-7-yl]phenoxy]-7-azaspiro[3.5]nonan-7-yl]pyrimidine-5-carboxamide] | < 500 nM | < 500 nM | < 500 nM | > 3000 nM |  |  |  |  |
| Cc1sc2c(c1C)C(c1ccc(C[C@H]3C[C@@H](OC4CCN(c5ncc(C(=O)N[C@H]6C(C)(C)[C@H](Oc7ccc(C#N)c(Cl)c7)C6(C)C)cn5)CC4)C3)cc1)=N[C@@H](Cc1ncco1)c1nnc(C)n1-2 [Compound I-427] |  |  |  |  | < 500 nM | < 500 nM | < 500 nM | > 3000 nM |
